For data set [1], the system named is partial, tonic-clonic and generalized seizures. The following applies: clinically; cited from earlier work.
Data set [2] concerns MES, PTZ and amygdala-kindling seizure models. The conditions noted are these: systemic PTZ; cited from earlier work.
The test system of data set [3] is APPL/S mice. The data set can be described thus: novel object recognition. It is filed as in vivo, mouse.
The test system of data set [4] is amyloid-P-induced neurodegenerative mechanisms. The conditions noted are these: previous in vitro studies; cited from earlier work.
Data set [5] has as its system APPL/S mice. The following applies: APPL/S transgenic AD mouse model; cited from earlier work.
The conditions of data set [6]: after oral administration; cited from earlier work.
Data set [7] concerns APPL/S mice. The data set can be described thus: choline acetyltransferase immunostaining of cholinergic neurites in basal forebrain. It is filed as in vivo, mouse. The conditions noted are these: basal forebrain sections. As for the experimental part:
(§1) FIG. 30A is a photomicrograph of APP immunolabeling for dystrophic neurites (left) and Thioflavin S staining for amyloid plaques (right) in hippocampus of APPL/S mice given vehicle or LM11A-31 as indicated. Scale bars=25 μm. FIG. 30B is a photomicrograph of choline acetyltransferase-immunostained basal forebrain sections. Treatment of APPL/S mice with LM11A-31 was associated with increased length, volume, and branching of cholinergic neurites. […] Statistical significance was determined using ANOVA and post-hoc Student-Neuman-Keuls testing.

Data set [8] deals with APP/PS1 mice. Briefly: LTP / synaptic function in hippocampal slice preparations from AD model mice. Further details: species or system mouse. The conditions noted are these: hippocampus.
In data set [9] the test system is APPL/S mice. The data set can be described thus: APP immunolabeling for dystrophic neurites, Thioflavin S staining for amyloid plaques in hippocampus. In kind it is in vivo. The conditions noted are these: transgenic mouse model of AD, APPL/S mice given vehicle or LM11A-31. The protocol: as §1
Data set [10] relates to APPL/S mice. The conditions noted are these: APPL/S transgenic AD mouse model; cited from earlier work. This is another data set of the same source.
For data set [11], the system named is APPL/S transgenic AD mouse model. The following applies: cited from earlier work.
Data set [12] relates to APP/PS1 mice. The following applies: slices derived from AD model mice; cited from earlier work.
The subject of data set [13] is APPL/S mice. The conditions noted are these: basal forebrain and hippocampus; cited from earlier work.
The next data set concerns PTZ seizures. The conditions noted are these: prior studies; cited from earlier work.

The structures appear in SMILES notation.

Consider `O=C1NC(=O)C(c2ccccc2)(c2ccccc2)N1` [PHT, phenytoin], for which the “clinical efficacy by seizure type” value in data set [1] was “efficacy in partial and generalized tonic-clonic seizures”.
On to `CC[C@@H](C(N)=O)N1CCCC1=O` [LEV, levetiracetam], for which the “efficacy in conventional epilepsy models” value in data set [2] is on record as “efficacy only in amygdala-kindling”. In addition, the “clinical efficacy by seizure type” value in [1] is “efficacy for partial, tonic-clonic and non-convulsive generalized seizures”.
On to `CC[C@H](C)[C@H](N)C(=O)NCCN1CCOCC1` [LM11A-31], for which, in the data set with APPL/S mice [3], the object recognition deficits result is listed as “prevented”. Besides, the amyloid-P-induced neurodegenerative mechanisms result in data set [4] is listed as “prevented”. The “deficits in novel object recognition” value in the data set with APPL/S mice [5] is “prevented deficits”. For the same compound, in data set [6], the brain concentrations result is “reach brain concentrations known to provide neuroprotection in vitro” and the “crossing of the blood brain barrier” value is given as “cross the blood brain barrier”. In the data set on APPL/S mice [7], the “length, volume, and branching of cholinergic neurites” value is listed as “increased”. Moreover, the LTP entry with APP/PS1 mice [8] is “normalizes”. Besides, the “dystrophic neurites and amyloid plaque formation in the hippocampus” value in the data set on APPL/S mice [9] was “rescued significantly”. In addition, in the data set with APPL/S mice [10], the amyloid levels entry is recorded as “without affecting”. Further, the “deficits in Y-maze performance” value in data set [11] is “prevented deficits”. In the data set on APP/PS1 mice [12], the “synaptic impairment in hippocampal slice preparations” value was “reversed”. The cholinergic neuritic dystrophy result with APPL/S mice [13] is listed as “prevented”.
With `CC[C@@H](CO)NC(=O)[C@@H]1C=C2c3cccc4c3c(cn4C)C[C@H]2N(C)C1` [methylsergide], in the data set on PTZ seizures, the “effect on the beneficial effect of ANT electrical stimulation to raise threshold for PTZ seizures” value was “largely blocked”.
With `O=C1Nc2ccc(Cl)cc2C(c2ccccc2Cl)=NC1O` (stereo not drawn) [lorazepam], the “efficacy in conventional epilepsy models” value in data set [2] is given as “efficacy in all three conventional models”. Further, in data set [1], the “clinical efficacy by seizure type” value is “efficacy in partial and generalized tonic-clonic seizures”.
